Reference: ChEMBL document CHEMBL1141964, “Molecular docking and 3D-QSAR on 2-(oxalylamino) benzoic acid and its analogues as protein tyrosine phosphatase 1B inhibitors” (Bioorg Med Chem Lett, 2005)

Biological target: T1, Tyrosine-protein phosphatase non-receptor type 1 (Homo sapiens, UniProt P18031)
T1 sequence (P18031 whole entry): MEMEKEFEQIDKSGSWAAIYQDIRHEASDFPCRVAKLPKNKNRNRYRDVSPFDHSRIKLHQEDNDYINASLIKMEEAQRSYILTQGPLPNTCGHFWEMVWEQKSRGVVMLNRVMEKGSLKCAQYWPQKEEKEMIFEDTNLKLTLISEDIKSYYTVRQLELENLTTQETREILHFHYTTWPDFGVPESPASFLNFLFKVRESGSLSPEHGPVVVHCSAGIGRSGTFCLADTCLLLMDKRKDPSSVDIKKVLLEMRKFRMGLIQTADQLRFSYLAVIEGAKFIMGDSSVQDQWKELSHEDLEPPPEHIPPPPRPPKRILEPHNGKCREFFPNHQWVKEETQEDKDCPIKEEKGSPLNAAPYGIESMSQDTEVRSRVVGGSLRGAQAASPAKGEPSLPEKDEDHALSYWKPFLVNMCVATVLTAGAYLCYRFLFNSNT
Test: Binding affinity to PTP1B

- Ki: 2200 nM
Structure (SMILES): O=C(O)C(=O)Nc1sc2c(c1C(=O)O)CCC1(C2)OCCO1
